From ChEMBL document CHEMBL4417631, “Oral peptide inhibitors of interleukin-23 receptor and their use to treat inflammatory bowel diseases” (2017) come the findings set out here.

The target of this assay is T1, Interleukin-23 receptor (Homo sapiens, UniProt Q5VWK5).
T1 sequence (Q5VWK5 whole entry): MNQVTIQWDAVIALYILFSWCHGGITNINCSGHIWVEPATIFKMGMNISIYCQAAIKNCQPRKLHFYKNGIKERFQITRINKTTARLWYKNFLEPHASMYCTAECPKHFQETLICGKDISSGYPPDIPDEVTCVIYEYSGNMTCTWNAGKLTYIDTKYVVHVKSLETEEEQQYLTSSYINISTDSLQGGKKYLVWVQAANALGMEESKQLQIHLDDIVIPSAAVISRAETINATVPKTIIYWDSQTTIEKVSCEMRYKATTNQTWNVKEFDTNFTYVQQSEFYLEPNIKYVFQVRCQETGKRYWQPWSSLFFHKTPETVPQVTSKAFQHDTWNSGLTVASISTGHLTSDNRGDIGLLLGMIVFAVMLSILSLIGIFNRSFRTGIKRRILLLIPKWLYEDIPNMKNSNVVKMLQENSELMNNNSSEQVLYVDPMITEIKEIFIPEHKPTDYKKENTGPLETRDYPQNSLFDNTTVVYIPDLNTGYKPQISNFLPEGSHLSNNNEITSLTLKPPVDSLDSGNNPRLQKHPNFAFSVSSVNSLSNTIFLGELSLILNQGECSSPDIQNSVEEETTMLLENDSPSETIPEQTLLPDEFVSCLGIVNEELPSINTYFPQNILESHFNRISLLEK
Put plainly: Inhibition of interleukin-23 binding to human interleukin-23 receptor incubated for 2 hrs by competitive binding ELISA.

Where a SMILES comes first, the peptide text is derived from it.

Broadly, the IC50 is the concentration that inhibits the measured activity by half. In the case of `CC(=O)N[C@@H](CS)C(=O)N[C@@H](C)C(=O)N[C@@H](CC(=O)O)C(=O)N[C@@H](Cc1c[nH]c2ccccc12)C(=O)N[C@H](C(=O)N[C@@H](CS)C(=O)N[C@@H](Cc1ccc(O)cc1)C(=O)N[C@@H](Cc1ccc(-c2ccccc2)cc1)C(=O)N[C@@H](Cc1cnc[nH]1)C(=O)N[C@H](C(=O)N[C@@H](Cc1ccccc1)C(=O)NCC(=O)NCCOCC(=O)N[C@H](CCCCN)C(N)=O)[C@@H](C)O)C(C)C`, the IC50 was more than 1000 nM. The compound `CC(C)[C@H](NC(=O)[C@H](Cc1c[nH]c2ccccc12)NC(=O)[C@@H](NC(=O)[C@H](CCC(N)=O)NC(=O)[C@@H](N)CS)[C@@H](C)O)C(=O)N[C@@H](CS)C(=O)N[C@@H](Cc1ccc(O)cc1)C(=O)N[C@@H](Cc1c[nH]c2ccccc12)C(=O)N[C@@H](Cc1cnc[nH]1)C(=O)N[C@H](C(=O)N[C@@H](Cc1ccc(O)cc1)C(=O)NCC(N)=O)[C@@H](C)O` (H-CQTWVCYWHTYG-NH2) registered an IC50 of more than 1000 nM. Consider `CC(=O)N[C@@H](CS)C(=O)N[C@@H](CCCNC(=N)N)C(=O)N[C@H](C(=O)N[C@@H](Cc1c[nH]c2ccccc12)C(=O)N[C@@H](CCC(=O)O)C(=O)N[C@@H](CS)C(=O)N[C@@H](Cc1ccc(O)cc1)C(=O)N[C@@H](Cc1c[nH]c2ccccc12)C(=O)N[C@@H](Cc1cnc[nH]1)C(=O)N[C@@H](CCC(=O)O)C(=O)N[C@@H](CCC(N)=O)C(=O)N[C@@H](CO)C(N)=O)[C@@H](C)O` (Ac-CRTWECYWHEQS-NH2), for which the IC50 was less than 500 nM.

Regarding `C[C@@H](O)[C@H](NC(=O)[C@H](CCC(N)=O)NC(=O)[C@@H](N)CS)C(=O)N[C@@H](Cc1c[nH]c2ccccc12)C(=O)N[C@@H](CCC(N)=O)C(=O)N[C@@H](CS)C(=O)N[C@@H](Cc1ccc(O)cc1)C(=O)N1Cc2ccccc2C[C@H]1C(=O)N[C@@H](CCCN)C(=O)N[C@@H](CCCCN)C(=O)N[C@@H](Cc1ccccc1)C(=O)NCC(=O)NCCOCC(=O)N[C@H](CCCCN)C(N)=O`, the IC50 was more than 30000 nM. `CC(=O)N[C@@H](CS)C(=O)N[C@@H](CCC(N)=O)C(=O)N[C@H](C(=O)N[C@@H](Cc1c[nH]c2ccccc12)C(=O)N[C@@H](CCC(N)=O)C(=O)N[C@@H](CS)C(=O)N[C@@H](Cc1cnc[nH]1)C(=O)N[C@@H](Cc1c[nH]c2ccccc12)C(=O)N[C@@H](CCC(C)C)C(=O)N[C@@H](CCC(=O)O)C(=O)N[C@@H](CC(N)=O)C(=O)NCC(N)=O)[C@@H](C)O`: the half-inhibitory concentration (IC50) stood at 6000 nM. `CC(=O)N[C@@H](CS)C(=O)N[C@H](C(=O)N[C@H](C(=O)N[C@@H](Cc1c[nH]c2ccccc12)C(=O)N[C@H](C(=O)N[C@@H](CS)C(=O)N[C@@H](Cc1ccc(O)cc1)C(=O)N[C@@H](Cc1c[nH]c2ccccc12)C(=O)N[C@@H](Cc1cnc[nH]1)C(=O)N[C@@H](CCC(N)=O)C(=O)N[C@@H](Cc1ccc(O)cc1)C(=O)NCC(N)=O)[C@@H](C)O)[C@@H](C)O)[C@@H](C)O` (Ac-CTTWTCYWHQYG-NH2): the IC50 was less than 500 nM.

As for `CC(=O)N[C@@H](CS)C(=O)N[C@@H](CCCNC(=N)N)C(=O)N[C@@H](CC(=O)O)C(=O)N[C@@H](Cc1c[nH]c2ccccc12)C(=O)N[C@@H](CCC(N)=O)C(=O)N[C@@H](CS)C(=O)N[C@@H](Cc1ccc(O)cc1)C(=O)N[C@@H](Cc1c[nH]c2ccccc12)C(=O)N[C@H](CCCNC(=N)N)C(=O)N[C@H](CCCCN)C(=O)N[C@@H](Cc1ccccc1)C(=O)NCC(=O)NCCOCCC(=O)N[C@H](CCCCN)C(N)=O`, the IC50 is more than 1000 nM.
